How the values were obtained:
[1] = tested on: MDS; details: cited from earlier work
[2] = tested on: human AML; experiment: nonclinical xenograft models of human AML; format: in vivo; details: mice
[3] = Phase 1 trials of Hu5F9-G4 monotherapy; format: in vivo; details: Phase 1 trial
[4] = pivotal randomized trial leading to azacitidine approval in MDS

| Compound | known CR rate ([1]; azacitidine alone) | CR+PR rate, point estimate [1, 4] | CR+PR rate, upper bound of the 1-sided 95% confidence interval [1, 4] | leukemic disease in the peripheral blood and bone marrow [2] | maximum tolerated dose (MTD) [3] | tolerability [3] |
| --- | --- | --- | --- | --- | --- | --- |
| Nc1ncn([C@@H]2O[C@H](CO)[C@@H](O)[C@H]2O)c(=O)n1 [azacitidine] | 17.85% | 15.7% | 23.5% | – | – | – |
| Hu5F9-G4: humanized IgG4 kappa monoclonal antibody targeting human CD47; heavy chain SEQ ID NO: 50, light chain SEQ ID NO: 51 | – | – | – | robust elimination of leukemic disease in the peripheral blood and bone marrow which results in long term remissions in a high percentage of mice treated | has not been reached | well tolerated |
